Results reported in patent US9012433B2, “Substituted tetracycline compounds” (Paratek Pharmaceuticals, Inc., priority 2006, dated 2015).
≈ marks a conversion by molar mass, not a printed value.

Experiments:
in vitro = format: cell-based
Description: Mammalian cell cytotoxicity was assessed to evaluate potential in vivo risks associated with the tetracycline compounds of the invention. A soluble, non-toxic redox dye (“Resazurin”; Alamar Blue) was used to assess a tetracycline compound's effect on cellular metabolism. At the onset of the experiment, cultures of mammalian COS-1 or CHO cells were washed, trypsinized, and harvested. […] On the next day, serial dilutions of test drug were prepared under sterile conditions and transferred to cell plates. Plates were then incubated under the above conditions for 24 hours. Following the incubation period, the media/drug was aspirated, and 50 μL of resazurin was added. Plates were then incubated under the above conditions for 2 hours and then in the dark at room temperature for an additional 30 minutes. Fluorescence measurements were taken (excitation 535 nm, emission 590 nm) and toxic effects in treated versus control cells were compared based on the degree of fluorescence in each well.

S. aureus RN450 [1] = assay: In vivo anti-bacterial activity, S. aureus model; details: Staphylococcus aureus, sc, mice, 24 hours; for ED50: lethal IP S. aureus RN450, subcutaneous, read-out: PD50 (dose that protects 50% of the animals)
Description: Groups of five mice were injected intraperitoneally with a lethal dose of S. aureus RN450 in a medium of mucin. Mice were evaluated at 24 hours to determine survival. […] In some instances, a dose response study was performed with the compound such that a PD50 (a dose of compound that protects 50% of the animals) could be calculated.

P. acnes ATCC 11827 = assay: Antibacterial MIC, CLSI broth microdilution; format: cell-based; details: Cutibacterium acnes, ATCC11827; 35° C., 18-24 hours
Description: (§1) Grain (−) and gram (+) antibacterial minimum inhibitory concentration (MIC) values (μg/mL) were obtained using CLSI methodology for anti-bacterial susceptibility testing. On each day of testing, serial dilutions of compounds were prepared in microdilution plates using a Tecan robotic workstation. Mueller Hinton broth cultures of representative sensitive and resistant gram negative strains were grown or adjusted to match the turbidity of a 0.5 McFarland standard. 1:200 dilutions were made in an appropriate broth (cation supplemented Mueller Hinton broth) to allow a final inoculum of 1×10^5 cfu. Plates were incubated at 35° C. in ambient air for 18-24 hours, were read spectrophotometrically and checked manually for evidence of bacterial growth. The lowest dilution of compound that inhibited growth was recorded as the MIC. Lysed horse blood was used to supplement broth for testing S. pneumoniae. The MIC's for each compound were assessed against S. aureus, S. pneumoniae, P. acnes, E. coli and B. theta.

S. aureus RN450 [2] = assay: Antibacterial MIC, CLSI broth microdilution; format: cell-based; details: Staphylococcus aureus, RN450; 35° C., 18-24 hours
Description: as §1

P. acnes ATCC 6919 = assay: Antibacterial MIC, CLSI broth microdilution; format: cell-based; details: Cutibacterium acnes, ATCC6919; 35° C., 18-24 hours
Description: as §1

E. coli ATCC 25922 = assay: Antibacterial MIC, CLSI broth microdilution; format: cell-based; details: Escherichia coli, ATCC25922; 35° C., 18-24 hours
Description: as §1

E. coli MG 1655 = assay: Antibacterial MIC, CLSI broth microdilution; format: cell-based; details: Escherichia coli, MG1655; 35° C., 18-24 hours
Description: as §1

[3] = tested on: B. thetaiotaomicron ATCC 29741; assay: Antibacterial MIC, CLSI broth microdilution; format: cell-based; details: Bacteroides thetaiotaomicron, ATCC29741; 35° C., 18-24 hours; read-out: MIC B. thetaiotaomicron ATCC 29741
Description: as §1

[4] = tested on: S. pneumoniae 157E - Strep; assay: Antibacterial MIC, CLSI broth microdilution; format: cell-based; details: Streptococcus pneumoniae, 157ESTREP; 35° C., 18-24 hours; lysed horse blood
Description: as §1

[5] = Half-life of oxidation, sodium periodate accelerated oxidation; format: physicochemical; details: 15 molar excess of sodium periodate, pH 11, 22° C.; read-out: half-life for oxidation (converted)
Description: Not to be limited by theory, it is believed that the tissue staining may be caused oxidative instability. The tetracycline compounds were subjected to accelerated oxidation in a continuous-flow microreactor using a 15 molar excess of sodium periodate at pH 11 and 22° C. Aliquots of each reaction mixture were quenched at various time points with ascorbic acid and the disappearance of each compound was determined by RP-HPLC. Pseudo first-order rate constants and t1/2 values were obtained from the plots of log (Ao-At/Ao) versus time, where Ao is the HPLC area determined for each compound at time=0 and At is the HPLC area at time=t.

| half-life [5] [min] | SMILES | IC50 at 24 h (in vitro; African green monkey) [µg/mL] | IC50 at 24 h (in vitro; Chinese hamster) [µg/mL] | ED50 (S. aureus RN450 [1]) [mg/kg] | MIC (P. acnes ATCC 11827) [µg/mL] | MIC (S. aureus RN450 [2]) [µg/mL] | MIC (P. acnes ATCC 6919) [µg/mL] | MIC (E. coli ATCC 25922) [µg/mL] | MIC (E. coli MG 1655) [µg/mL] | MIC [3] [µg/mL] | MIC [4] [µg/mL] | responders at 5 mg/kg (S. aureus RN450 [1]; lethal IP S. aureus RN450, single subcutaneous dose 5 mg/kg, read-out: Percent Survival) [%] |
| --- | --- | --- | --- | --- | --- | --- | --- | --- | --- | --- | --- | --- |
| – | CNc1c(-c2ccc(O)c3c2C[C@H]2C[C@H]4[C@H](N(C)C)C(O)=C(C(N)=O)C(=O)[C@@]4(O)C(O)=C2C3=O)c(=O)c1=O [AD, (4S,4aS,5aR,12aS)-4-Dimethylamino-3,10,12,12a-tetrahydroxy-7-(2-methylamino-3,4-dioxo-cyclobut-1-enyl)-1,11-dioxo-1,4,4a,5,5a,6,11,12a-octahydro-naphthacene-2-carboxylic acid amide] | < 35 | < 35 | 4.54 | < 4 | < 4 | < 4 | 4 to 8 (≈ 7.64 to 15.3 µM) | 4 to 8 (≈ 7.64 to 15.3 µM) | > 8 | < 4 | – |
| – | C=CCONCc1ccc(O)c2c1C[C@H]1C[C@H]3[C@H](N(C)C)C(O)=C(C(N)=O)C(=O)[C@@]3(O)C(O)=C1C2=O [AF] | 35 to 75 (≈ 70.1 to 150 µM) | 35 to 75 (≈ 70.1 to 150 µM) | 0.23 | < 4 | < 4 | < 4 | 4 to 8 (≈ 8.01 to 16 µM) | 4 to 8 (≈ 8.01 to 16 µM) | < 4 | < 4 | – |
| 8.25 | CN(C)c1cc(C#N)c(O)c2c1C[C@H]1C[C@H]3[C@H](N(C)C)C(O)=C(C(N)=O)C(=O)[C@@]3(O)C(O)=C1C2=O [B] | < 35 | < 35 | – | < 4 | < 4 | < 4 | > 8 | > 8 | 4 to 8 (≈ 8.29 to 16.6 µM) | < 4 | – |
| – | CN(C)c1cccc2c1C[C@H]1C[C@H]3[C@H](N(C)C)C(O)=C(C(N)=O)C(=O)[C@@]3(O)C(O)=C1C2=O [C] | > 75 | > 75 | – | < 4 | < 4 | < 4 | > 8 | > 8 | > 8 | < 4 | 100 |
| – | CC(C)ONCc1ccc(O)c2c1C[C@H]1C[C@H]3[C@H](N(C)C)C(O)=C(C(N)=O)C(=O)[C@@]3(O)C(O)=C1C2=O [DV, (4S,4aS,5aR,12aS-4-Dimethylamino-3,10,12,12a-tetrahydroxy-7-isopropoxyamino-methyl)-1,11-dioxo-1,4,4a,5,5a,6,11,12a-octahydro-naphthacene-2-carboxylic acid amide] | < 35 | < 35 | 1.1 | < 4 | < 4 | < 4 | 4 to 8 (≈ 7.98 to 16 µM) | > 8 | 4 to 8 (≈ 7.98 to 16 µM) | < 4 | – |
| – | CN(C)[C@@H]1C(O)=C(C(N)=O)C(=O)[C@@]2(O)C(O)=C3C(=O)c4c(O)ccc(CNOCCF)c4C[C@H]3C[C@@H]12 [DW, (4S,4aS,5aR,12aS)-4-Dimethylamino-7-[(2-fluoro-ethoxyamino)-methyl]-3,10,12,12a-tetrahydroxy-1,11-dioxo-1,4,4a,5,5a,6,11,12a-octahydro-naphthacene-2-carboxylic acid amide] | > 75 | > 75 | 0.48 | < 4 | < 4 | < 4 | < 4 | > 8 | 4 to 8 (≈ 7.91 to 15.8 µM) | < 4 | – |
